Test results as given in US20040214832A1, “Piperazine derivative renin inhibitors” (priority 2003, published 2004).

molecular target: T1, human renin (Homo sapiens, UniProt P00797); assay: Determination of renin IC50 by tGFP FRET assay; format: biochemical; conditions: Human recombinant renin, tandem GFP substrate 650 nM, 60 min incubation with compound, pH 7.4, 11-point curve
T1 sequence (P00797 67-406): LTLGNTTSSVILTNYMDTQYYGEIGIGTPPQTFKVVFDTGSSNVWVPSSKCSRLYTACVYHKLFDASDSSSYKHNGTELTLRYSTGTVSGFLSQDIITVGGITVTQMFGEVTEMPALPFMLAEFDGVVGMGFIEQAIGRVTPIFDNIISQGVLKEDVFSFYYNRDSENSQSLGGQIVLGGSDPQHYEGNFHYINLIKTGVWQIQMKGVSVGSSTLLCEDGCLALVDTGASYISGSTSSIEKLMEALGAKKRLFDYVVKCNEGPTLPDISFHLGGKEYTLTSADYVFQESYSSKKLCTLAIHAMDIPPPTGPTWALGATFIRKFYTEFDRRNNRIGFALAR
Text: Determination of Renin IC50 by tGFP FRET Assay
The tGFP FRET (fluorescence resonance energy transfer) assay utilizes a tandem GFP substrate (60 kDa, Discovery Technologies) containing nine amino acid recognition sequences for human renin flanked by two GFP proteins. The assay is used to determine the ability of a compound to act as an inhibitor of renin enzymatic activity by determination of that concentration of test compound that inhibits by 50% (IC50) the ability of renin to cleave the tandem GFP substrate. The IC50 values are determined over an 11-point curve at concentrations of 100 μM to 1 pM. Each compound concentration used to construct the curve was dependent on renin inhibitor potency. For example, subnanomolar IC50 values were determined over an 11-point curve at concentrations of 10 μM to 1 pM. All other IC50 values were determined over an 11-point curve at concentrations of 100 μM to 0.0065 μM. The concentrations were achieved by diluting a 9.1 nM stock of Human recombinant renin in the appropriate amount of buffer containing 50 mM HEPES, 1 mM EDTA, 1% PEG (8000 MW), 1 mM DTT, 0.1% BSA, pH 7.4 to achieve the final concentration of 50.4 μIU. The tGFP substrate stock solution of 43 μM was diluted with the appropriate amount of the above buffer to obtain the final concentration of 650 nM. In addition, 1 μl of the compound is diluted in dimethylsulfoxide (DMSO) to represent an […] log scale (5% final). The SR renin and compound are added to a 384 capacity plate by an automated robot (BIOMEK). The plate is incubated for 60 minutes; upon completion the tGFP substrate is added.
The IC50 is determined by monitoring the increase in […] at 432/432 nm excitation, 530/475 nm emission with a cutoff at 515/455 nm, in a fluorometric plate reader.

SMILES	IC50 [µM]
COc1ccccc1COCCCOc1ccc(N2C(=O)CNC[C@@H]2COc2ccc3c(c2)N(CC(N)=O)CCC3)cc1 [Example 56, 2-[7-(1-{4-[3-(2-methoxybenzyloxy)-propoxy]-phenyl}-6-oxopiperazin-(2R)-ylmethoxy)-3,4-dihydro-2H-quinolin-1-yl]-acetamide]	0.435
COc1ccccc1COCCCOc1ccc(N2C(=O)CNC[C@@H]2COc2ccccn2)cc1 [Example 80, (6R)-1-{4-[3-(2-methoxybenzyloxy)-propoxy]-phenyl}-6-(pyridin-2-yloxymethyl)-piperazin-2-one]	20.9
COc1ccccc1CSCCCOc1ccc(N2CCNC[C@@H]2COc2ccc3ccccc3c2)cc1 [Example 102, (2R)-1-{4-[3-(2-methoxybenzylsulfanyl)-propoxy]-phenyl}-2-(naphthalene-2-yloxymethyl)-piperazine]	> 1
COc1cccc(COCCCOc2ccc(N3CCNC[C@@H]3COc3ccc4ccccc4c3)cc2)c1 [Example 89, (2R)-1-{4-[3-(3-methoxybenzyloxy)-propoxy]-phenyl}-2-(naphthalen-2-yloxymethyl)-piperazine]	23.7
COc1ccccc1COCCCOc1ccc(N2C(=O)CNC[C@@H]2COCc2ccccc2)cc1 [Example 45, (6R)-6-benzyloxymethyl-1-{4-[3-(2-methoxybenzyloxy)-propoxy]-phenyl}-piperazin-2-one]	7.01
COc1ccccc1COCCCOc1ccc(N2CCNC[C@@H]2COc2ccc3c(c2)CCCC3)cc1 [Example 40, (2R)-1-{4-[3-(2-methoxybenzyloxy)-propoxy]-phenyl}-2-(5,6,7,8-tetrahydronaphthalen-2-yloxymethyl)-piperazine]	0.44
COc1ccc(COC[C@H]2CNCCN2c2ccc(OCCCOCc3ccc(Cl)c(Cl)c3)cc2)cc1 [Example 63, (2R)-1-{4-[3-(3,4-dichlorobenzyloxy)-propoxy]-phenyl}-2-(4-methoxybenzyloxymethyl)-piperazine]	11.5
COc1ccccc1COCCCOc1ccc(N2C(=O)CNC[C@@H]2COCc2cc(Cl)cc(Cl)c2)cc1 [Example 20, (6R)-6-(3,5-dichlorobenzyloxymethyl)-1-{4-[3-(2-methoxybenzyloxy)-propoxy]-phenyl}-piperazin-2-one]	> 1
COc1ccccc1COCCCOc1ccc(N2C(=O)CNC[C@@H]2CNC(=O)c2ccc3ccccc3c2)cc1 [Example 85, naphthalene-2-carboxylic acid ([2R]-1-{4-[3-(2-methoxybenzyloxy)-propoxy]-phenyl}-6-oxopiperazin-2-ylmethyl)-amide]	> 1
COc1ccccc1COCCCOc1ccc(N2C(=O)CNC[C@@H]2COc2cnccn2)cc1 [Example 79, (6R)-1-{4-[3-(2-methoxybenzyloxy)-propoxy]-phenyl}-6-(pyrazin-2-yloxymethyl)-piperazin-2-one]	76.4
COc1ccccc1COCCCOc1ccc(N2C(=O)CNC[C@@H]2COCc2ccncc2)cc1 [Example 25, (6R)-1-{4-[3-(2-methoxybenzyloxy)-propoxy]-phenyl}-6-(pyridin-4-ylmethoxymethyl)-piperazin-2-one]	> 1
COc1ccccc1COCCCOc1ccc(N2CCNC[C@@H]2COCc2cccc(-c3ccccc3)c2)cc1 [Example 91, (2R)-2-(biphenyl-3-ylmethoxymethyl)-1-{4-[3-(2-methoxybenzyloxy)-propoxy]-phenyl}-piperazine]	1.02
O=C(NCCOc1ccccc1)c1ccc(N2C(=O)CNC[C@@H]2COc2ccc3ccccc3c2)cc1 [Example 53, 4-[(2R)-2-(naphthalen-2-yloxymethyl)-6-oxopiperazin-1-yl]-N-(2-phenoxyethyl)-benzamide]	> 1
COc1ccccc1COCCCOc1ccc(N2C(=O)CNC[C@@H]2COCc2ccc(F)cc2Cl)cc1 [Example 22, (6R)-6-(2-chloro-4-fluorobenzyloxymethyl)-1-{4-[3-(2-methoxybenzyloxy)-propoxy]-phenyl}-piperazin-2-one]	> 1
COc1ccccc1COCCCOc1ccc(N2C(=O)CNC[C@@H]2COCc2cc(F)cc(F)c2)cc1 [Example 11, (6R)-6-(3,5-difluorobenzyloxymethyl)-1-{4-[3-(2-methoxybenzyloxy)-propoxy]-phenyl}-piperazin-2-one]	1.57
COc1cccc(COC[C@H]2CNCC(=O)N2c2ccc(OCCCOCc3ccccc3OC)cc2)c1 [Example 9, (6R)-6-(3-methoxybenzyloxymethyl)-1-{4-[3-(2-methoxybenzyloxy)-propoxy]-phenyl}-piperazin-2-one]	0.612
COC(=O)c1cc(N2C(=O)CNC[C@@H]2COc2ccc3ccccc3c2)ccc1OCCCOCc1ccccc1OC [Example 96, 2-[(5R)-3-(2-methoxybenzyloxy)-propoxy]-5-[2-(naphthalene-2-yloxymethyl)-6-oxopiperazin-1-yl]-benzoic acid methyl ester]	> 1

The next compounds have a lower IC50 than those just listed; values first:

IC50 [µM]	SMILES
0.225	COc1ccccc1COCCCOc1ccc(N2C(=O)CNC[C@@H]2COCc2ccccc2F)cc1 [Example 3, (6R)-6-(2-fluorobenzyloxymethyl)-1-{4-[3-(2-methoxybenzyloxy)-propoxy]-phenyl}-piperazin-2-one]
0.006	COC(=O)Cn1c(C)cc2cc(OC[C@H]3CNCC(=O)N3c3ccc(OCCCOCc4ccccc4OC)cc3)ccc21 [Example 121, [5-([2R]-1-{4-[3-(2-Methoxybenzyloxy)-propoxy]-phenyl}-6-oxopiperazin-2-ylmethoxy)-2-methyl-indol-1-yl]-acetic acid methyl ester]
0.00036	COC(=O)CCN1CCCc2ccc(OC[C@H]3CNCC(=O)N3c3ccc(OCCCOCc4ccccc4OC)cc3)cc21 [Example 122, 3-[7-([2R]-1-{4-[3-(2-Methoxybenzyloxy)-propoxy]-phenyl}-6-oxopiperazin-2-ylmethoxy)-3,4-dihydro-2H-quinolin-1-yl]-propionic acid methyl ester]
0.00317	COCCCN1CCCc2ccc(OC[C@H]3CNCC(=O)N3c3ccc(OCCCOCc4ccccc4OC)cc3)cc21 [Example 109, (6R)-1-{4-[3-(2-Methoxybenzyloxy)-propoxy]-phenyl}-6-[1-(3-methoxypropyl)-1,2,3,4-tetrahydroquinolin-7-yloxymethyl]-piperazin-2-one]
0.152	COc1ccccc1COCCCOc1ccc(N2C(=O)CNC[C@@H]2COc2ccc3ccccc3c2)cc1F [Example 39, (6R)-1-{3-fluoro-4-[3-(2-methoxybenzyloxy)-propoxy]-phenyl}-6-(naphthalen-2-yloxymethyl)-piperazin-2-one]
0.066	COc1ccccc1COCCCOc1ccc(N2C(=O)CNC[C@H]2COc2ccc3ccccc3c2)cc1 [Example 1, (6S)-1-{4-[3-(2-methoxybenzyloxy)-propoxy]-phenyl}-6-(naphthalen-2-yloxymethyl)-piperazin-2-one]
0.225	COc1ccc2ccc(OC[C@H]3CNCC(=O)N3c3ccc(OCCCOCc4ccccc4OC)cc3)cc2c1 [Example 105, (6R)-1-{4-[3-(2-methoxybenzyloxy)-propoxy]-phenyl}-6-(7-methoxynaphthalen-2-yloxymethyl)-piperazin-2-one]
0.00017	CCOC(=O)CN1C(=O)COc2ccc(SC[C@H]3CNCC(=O)N3c3ccc(OCCCOCc4ccccc4OC)cc3)cc21 [Example 129, [6-([2R]-1-{4-[3-(2-Methoxybenzyloxy)-propoxy]-phenyl}-6-oxo-piperazin-2-ylmethylsulfanyl)-3-oxo-2,3-dihydro-benzo[1,4]oxazin-4-yl]-acetic acid ethyl ester]
